The values below come from PubChem BioAssay (NCI).

Structures are written as SMILES.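 Compound exposure: 48 hours, 5 concentrations, 96-well plates. The concentration for full growth arrest is given as TGI.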 Bounds are passed on as bounds.

What all share (test): NCI-60 cell line screen, 48 h
Assay [1] deals with MDA-MB-231 breast.
Assay [2] deals with HT29 colon.
Assay [3] concerns HS 578T breast.
The test system of assay [4] is UO-31 renal.
Assay [5] deals with 786-0 renal.
Assay [6] relates to SK-MEL-5 melanoma.
In assay [7] the test system is RPMI-8226 leukemia.
Assay [8] concerns PC-3 prostate.
Assay [9] concerns NCI-H522 lung.
Assay [10] concerns TK-10 renal.
In assay [11] the test system is DU-145 prostate.

`CCOc1nc(-c2ccccc2)cc(-c2ccc(N3CCOCC3)cc2)c1C#N`: the TGI in assay [1], in assay [2], in [3], in [4], in assay [5] and in assay [6] was greater than 100 µM each time. The TGI in [7], in [8], in [9], in [10] and in assay [11] was greater than 100 µM throughout.

In the case of `CN(C)CCNC(=O)c1cccc2nc3c(nc12)-c1ccccc1C3=O`, the TGI in assay [1] was 23.8 µM; in assay [2], 22.8 µM; in [3], 44 µM; in assay [4] it was 39.1 µM; in [5] it was 30.2 µM; in [6], 25.1 µM. Moreover, the TGI in assay [7] is 33.6 µM; in assay [8] it was 35 µM; in assay [9] it was 30.7 µM; in assay [10], 56.6 µM; in assay [11], 70 µM.

Turning to `O=c1c(C=Nc2ccc([N+](=O)[O-])cc2)c(O)n(-c2ccccc2)c(=O)n1-c1ccccc1`, the TGI in [1], in assay [2], in [3], in [4], in assay [5] and in assay [6] was greater than 100 µM throughout. Besides, the TGI in [7], in assay [8], in assay [9] and in assay [10] was greater than 100 µM each time.

As for `COc1ccc2c(c1)n([O-])c(C#N)c(N1CCN(c3ccc([N+](=O)[O-])cc3)CC1)[n+]2=O`, the TGI in assay [1] was greater than 100 µM; in [2] it was greater than 100 µM; in assay [3] it was greater than 24.4 µM; in assay [5], greater than 100 µM; in assay [6], 19.7 µM; in assay [8], greater than 100 µM. Further, the TGI is 9.97 µM in assay [9], greater than 100 µM in assay [10] and greater than 84.1 µM in [11].

Turning to `OC1(c2cc3ccccc3s2)CCCCC1`, the TGI was 87.5 µM in [1]; 54.5 µM in assay [2]; 87.5 µM in assay [3]; greater than 100 µM in assay [4]; greater than 100 µM in assay [5]; greater than 100 µM in [6]. The TGI is 65.6 µM in assay [9], greater than 100 µM in assay [10] and greater than 100 µM in assay [11].

Turning to `CNC(=O)c1cc(NC(=O)N(CCC#N)CCN(C(=O)N[C@@H](Cc2ccccc2)C(=O)N[C@@H](CC(C)C)C(=O)NC)c2ccccc2)ccc1OC`, the TGI in assay [1] was greater than 60.3 µM; in [2] it was greater than 100 µM; in assay [3], greater than 100 µM; in assay [4], greater than 100 µM; in [5], greater than 100 µM; in [6] it was greater than 69.2 µM. Also, the TGI in assay [7] is greater than 88.3 µM; in assay [8] it was greater than 100 µM; in assay [10] it was greater than 100 µM; in assay [11] it was greater than 100 µM.

In the case of `COc1cccc(N(CN2CC=CC2=O)C(C)=O)c1`, the TGI in assay [1], in [2], in assay [3], in assay [4], in [5] and in assay [6] was greater than 100 µM in each case. The TGI in assay [7], in assay [8], in assay [9], in [10] and in assay [11] was greater than 100 µM in each case.

In the case of `CSc1c(C#N)c(=O)[nH]c2n[nH]c(C)c12`, the TGI in assay [1], in assay [2], in [3], in assay [4], in [5] and in [6] was greater than 100 µM each time. Besides, the TGI in assay [7], in [8], in [10] and in [11] was greater than 100 µM in each case.

For `O=c1cc(N2CCCC2)[nH]c(=O)n1-c1cccc(C(F)(F)F)c1`, the TGI in [1], in assay [2], in assay [3], in [5], in [7] and in assay [8] was greater than 100 µM each time. Moreover, the TGI in [9], in [10] and in [11] was greater than 100 µM in each case.

Regarding `CCCCc1ccc(Nc2ncc3[nH]cnc3n2)cc1`, the TGI in assay [1] came to 30.3 µM; in assay [2], 44.8 µM; in assay [3] it was 33.9 µM; in assay [4] it was 37.9 µM; in assay [5], 54.3 µM; in assay [6], 31.1 µM. Further, the TGI in assay [7] stood at 71.2 µM; in assay [9] it was 55 µM; in assay [10], 30.9 µM; in [11], 30.6 µM.

As to `C=C(CC[C@@H](C(=O)O)[C@H]1[C@H](O)C[C@@]2(C)C3=CC[C@@H](C(=C)C)[C@](C)(CCC(=O)O)C3=CC[C@]12C)C(C)C`, the TGI came out at 40.7 µM in assay [1]; 32.8 µM in assay [2]; 42.2 µM in [3]; 31.5 µM in assay [4]; 31.1 µM in assay [5]; 36.3 µM in assay [6]. Also, the TGI in [8] turned out to be 34.3 µM; in assay [9], 38.3 µM; in assay [10], 32.3 µM; in assay [11] it was 38.9 µM.

Turning to `Fc1ccc(N=NN2CCCC2)cc1`, the TGI in [1], in [2], in assay [3], in assay [4], in assay [5] and in [6] was greater than 100 µM in each case. The TGI in [7], in assay [9], in assay [10] and in [11] was greater than 100 µM throughout.

`COP(=O)(OC)C(Cc1c[nH]c2ccccc12)NC(=O)OCc1ccccc1` (stereo not given): the TGI in [1], in assay [2], in [3], in assay [4], in [6] and in assay [7] was greater than 100 µM each time. Further, the TGI in assay [8], in assay [9], in [10] and in [11] was greater than 100 µM throughout.
